Tests used:
[1] = target: T1, JAK1 (Homo sapiens, UniProt P23458); experiment: Human whole blood JAK1 activity assay: IL-6-induced STAT1 phosphorylation (CD4+ T cells); assay type: cell-based; set-up: endogenous in cells; conditions: IL-6 (100 ng/mL), read-out: IC50_JAK1 (IL6/pSTAT1)
Procedure: (§1) Compound inhibition of JAK1 and JAK2 activities was measured in human whole blood: inhibition of IL-6-induced STAT1 phosphorylation (CD4+ T cells) and GM-CSF-induced STAT5 phosphorylation (CD33+ cells) in human whole blood were respectively analysized. The experimental procedures are shown as follows:
(§2) 1) Human whole blood was collected into heparinized tubes, and seeded in a 96-well plate at 100 µL/well, and incubated in a cell incubator for 15 minutes.
(§3) 2) Different concentrations of compounds (25 μL/well) were added into desired wells and incubated at 37° C. under 5% CO2 for 30 minutes. The final concentration of DMSO was 0.2%.
(§4) 3) Blood cells were stimulated with recombinant human IL-6 (100 ng/mL) or recombinant human GM-CSF (20 ng/mL) or PBS at 37° C. and 5% CO2 for 20 minutes.
(§5) 4) The blood was treated with pre-warmed 1× Lysis/Fixing Buffer (BD Phosflow) at 37° C. for 10 minutes to lyse erythrocytes and fix leukocytes.
(§6) 5) After the cells were permeabilized with pre-cooled buffer (Perm buffer III) on ice for 60 minutes, anti-pSTAT1 and anti-CD4 antibodies (IL-6 stimulated samples) or anti-pSTAT5 and anti-CD33 antibodies (GM-CSF stimulated samples) were used to stain the samples at 4° C. for 60 minutes.
(§7) 7) The cells were washed twice and resuspended in buffer for FACS analysis (Thermo Attune NxT).

[2] = Mouse pharmacokinetics; assay type: in vivo; conditions: CD-1 mice, 5 mg/kg, P.O.
Procedure: Test compound was intravenously (IV) or orally (PO) administrated to CD-1 mice. Blood samples were collected at different time points as indicated below. The concentration of the compounds in the mouse plasma was determined by LC-MS/MS and related parameters were calculated. The details are as follows: the required amount of the test product was taken to prepare a solution of the required concentration for intravenous injection or oral administration. The age of the animals was about 6-8 weeks at the beginning of the dosing experiment. Blood sampling time points are 0.083 h, 0.25 h, 0.5 h, 1 h, 2 h, 4 h, 8 h and 24 h after compound administration. The Phoenix WinNonlin 7.0 software was used to calculate the pharmacokinetic parameters through the blood drug concentration data at different time points.

[3] = target: JAK2 (Homo sapiens, UniProt O60674); experiment: Human whole blood JAK2 activity assay: GM-CSF-induced STAT5 phosphorylation (CD33+ cells); assay type: cell-based; set-up: endogenous in cells; conditions: GM-CSF (20 ng/mL), read-out: IC50_JAK2 (GM-CSF/pSTAT5)
Procedure: as §1, §2, §3, §4, §5, §6, §7

[4] = target: T1, JAK1; experiment: In vitro JAK1 kinase activity assay (HTRF kinEASE TK); assay type: biochemical; set-up: purchased Thermo Fisher; conditions: 1.1 μM ATP, 60 minutes, room temperature; read-out: IC50 JAK1 (enzyme activity assay)
Summary of the method: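 HTRF TK assay: 0.5 ng/μl JAK1, 1 μM biotinylated TK peptide, 1.1 μM ATP with MgCl2, MnCl2, DTT, 60 min at room temperature; compounds 10 μM to 0.04 nM, 1% DMSO. Overnight detection with SA-XL665 and TK-antibody; 665/620 ratio to % inhibition, IC50 by 4-parameter fit.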

[5] = target: T1, JAK1; experiment: Cellular JAK1 activity assay: IL-6-stimulated STAT3 phosphorylation in TF-1 cells; assay type: cell-based; set-up: endogenous in cells; host or cells: TF-1 cells (ATCC); conditions: IL-6 (30 ng/mL), pSTAT3, read-out: IC50 Cell JAK1

T1 sequence (P23458 whole entry): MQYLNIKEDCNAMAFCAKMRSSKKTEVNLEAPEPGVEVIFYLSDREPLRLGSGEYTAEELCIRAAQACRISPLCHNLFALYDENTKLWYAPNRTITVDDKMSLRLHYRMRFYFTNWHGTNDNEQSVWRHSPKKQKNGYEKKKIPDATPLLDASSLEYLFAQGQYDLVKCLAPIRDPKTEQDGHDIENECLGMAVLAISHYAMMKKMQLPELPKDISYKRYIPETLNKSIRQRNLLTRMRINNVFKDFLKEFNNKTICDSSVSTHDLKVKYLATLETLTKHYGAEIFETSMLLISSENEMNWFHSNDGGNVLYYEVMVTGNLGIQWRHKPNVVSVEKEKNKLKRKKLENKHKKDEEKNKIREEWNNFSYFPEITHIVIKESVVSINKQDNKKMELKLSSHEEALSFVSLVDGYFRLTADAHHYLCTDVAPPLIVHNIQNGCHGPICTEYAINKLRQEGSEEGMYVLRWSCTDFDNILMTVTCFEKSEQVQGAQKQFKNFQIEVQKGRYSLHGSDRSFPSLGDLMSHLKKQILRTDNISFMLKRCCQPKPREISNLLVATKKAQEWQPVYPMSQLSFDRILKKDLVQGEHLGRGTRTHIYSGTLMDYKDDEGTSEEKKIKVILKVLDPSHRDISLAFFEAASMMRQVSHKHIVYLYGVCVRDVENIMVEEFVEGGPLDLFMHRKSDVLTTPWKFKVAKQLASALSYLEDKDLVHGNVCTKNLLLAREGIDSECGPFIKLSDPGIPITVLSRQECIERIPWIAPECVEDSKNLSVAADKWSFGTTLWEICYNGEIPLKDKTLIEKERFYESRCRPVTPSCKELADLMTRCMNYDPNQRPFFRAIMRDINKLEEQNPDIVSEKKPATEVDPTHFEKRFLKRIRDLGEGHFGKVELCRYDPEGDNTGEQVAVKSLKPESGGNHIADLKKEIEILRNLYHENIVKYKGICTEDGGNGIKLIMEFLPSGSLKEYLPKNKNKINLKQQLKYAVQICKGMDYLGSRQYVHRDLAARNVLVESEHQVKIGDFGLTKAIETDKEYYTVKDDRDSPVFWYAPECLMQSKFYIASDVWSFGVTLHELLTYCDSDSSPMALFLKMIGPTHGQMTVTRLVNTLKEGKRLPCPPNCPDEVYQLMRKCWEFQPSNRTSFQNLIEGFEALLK
JAK2, sequence (O60674 whole entry): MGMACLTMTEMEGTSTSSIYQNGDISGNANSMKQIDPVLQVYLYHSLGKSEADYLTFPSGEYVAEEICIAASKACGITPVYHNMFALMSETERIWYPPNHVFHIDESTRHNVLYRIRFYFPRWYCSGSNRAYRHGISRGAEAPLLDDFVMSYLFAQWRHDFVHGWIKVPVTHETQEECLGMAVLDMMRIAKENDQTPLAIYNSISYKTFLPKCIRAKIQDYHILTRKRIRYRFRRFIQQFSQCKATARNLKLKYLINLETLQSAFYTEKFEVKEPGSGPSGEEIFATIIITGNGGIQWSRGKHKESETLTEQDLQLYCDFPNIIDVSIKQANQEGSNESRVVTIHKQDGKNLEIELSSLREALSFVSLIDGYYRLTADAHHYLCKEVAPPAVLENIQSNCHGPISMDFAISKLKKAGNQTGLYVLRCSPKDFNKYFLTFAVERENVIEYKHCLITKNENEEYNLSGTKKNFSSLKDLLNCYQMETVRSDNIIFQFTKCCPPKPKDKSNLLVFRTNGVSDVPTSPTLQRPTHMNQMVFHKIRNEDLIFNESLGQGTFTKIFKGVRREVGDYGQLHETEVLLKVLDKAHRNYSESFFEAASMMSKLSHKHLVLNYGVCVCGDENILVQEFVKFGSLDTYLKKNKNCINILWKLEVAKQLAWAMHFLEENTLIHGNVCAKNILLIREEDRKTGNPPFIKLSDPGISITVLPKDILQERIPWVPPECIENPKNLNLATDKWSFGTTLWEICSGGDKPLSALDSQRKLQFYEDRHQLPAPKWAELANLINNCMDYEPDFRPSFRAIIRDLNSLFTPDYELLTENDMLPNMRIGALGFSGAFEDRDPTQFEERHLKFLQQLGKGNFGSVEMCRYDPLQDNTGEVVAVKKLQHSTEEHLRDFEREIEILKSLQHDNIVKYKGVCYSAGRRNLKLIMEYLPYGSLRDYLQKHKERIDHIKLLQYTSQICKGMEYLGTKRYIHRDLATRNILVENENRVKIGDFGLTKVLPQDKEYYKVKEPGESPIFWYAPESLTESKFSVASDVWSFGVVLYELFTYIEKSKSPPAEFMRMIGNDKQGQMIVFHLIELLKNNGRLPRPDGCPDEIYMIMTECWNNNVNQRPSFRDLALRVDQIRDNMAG

CC[C@H](C(=O)Nc1nccc2c(-c3nc(Nc4cn(C)nc4OC)ncc3C)c[nH]c12)N1CCN(C)CC1 [Example 4, (R)—N-(3-(2-((3-Methoxy-1-methyl-1H-pyrazol-4-yl)amino)-5-methylpyrimidin-4-yl)-1H-pyrrolo[2,3-c]pyridin-7-yl)-2-(4-methylpiperazin-1-yl)butanamide]
IC50 [1]: < 500 nM | F [2]: 106% | Cmax ([2]; mouse, po, plasma): 1060 ng/mL | half-life ([2]; mouse, po, plasma): 3.79 h | AUC(0-t) ([2]; mouse, po, plasma, read-out: AUC0-24 hr): 10200 ng·h/mL | IC50 [3]: > 20000 nM | IC50 [4]: < 5 nM | IC50 [5]: < 100 nM
